This note sets out measurements from patent US20220249637A1, “COMBINATION THERAPY OF A CELL-MEDIATED CYTOTOXIC THERAPY AND AN INHIBITOR OF A PROSURVIVAL BCL2 FAMILY PROTEIN” (Juno Therapeutics, Inc., priority 2019, published 2022).

Type in all cases: cell-based
The subject of one data set is CD3+CAR+ T cells. Description: Co-culture of tumor cells and CAR T cells, venetoclax added at initiation or 24, 48 or 72 hours later (Example 9): CAR T cell number. The protocol: FIGS. 14A and 14B show the number of CD3+CAR+ T cells and RL target cells, respectively, following a 6-day co-culture. Various concentrations of an exemplary BCL2 inhibitor were provided in the co-culture at its initiation, or 24, 48, or 72 hours after the initiation of co-culture.
Thus, in some cases, the cytotoic effects of a BCL2 inhibitor, e.g. venetoclax, and a T cell therapy (e.g. CAR T cells) may be synergistic to result in cell death of cells otherwise resistant to treatment with the T cell therapy alone. In some cases, administration of the inhibitor, e.g. venetoclax, may sensitize otherwise resistant cancer cells to CAR T cell-mediated killing when it is administered within or at about 7 days after administration of the cell therapy.

Data set [1] relates to cancer cells resistant to CAR T cell-mediated killing. The data set is described as follows: T cell-mediated killing of cancer cells by CAR T cells in presence of BCL2 inhibitor. The note with it: cancers resistant to T cell therapy alone, low doses without activity on tumor alone.
The subject of the next data set is SUDHL6. The data set is described as follows: NucLight Red target cell killing by live cell imaging. To be noted: venetoclax alone, 200 nM. The protocol: (§1) The cytolytic activity of anti-CD19 CAR T cells against two additional CD19-expressing lymphoma target cells lines, SUDHL6 and WSU-DLCL2, was assessed and compared to cytolytic activity against K562.CD19 target cells. Target cells were engineered with a lentiviral reagent to express NucLight Red (NLR) to permit tracking of target cells by microscopy. Anti-CD19 CAR-expressing T cell compositions were generated from two human adult donors, substantially as described above. Target cells were co-cultured with the donor-derived CAR T cell compositions for up to 120 hours at an E:T ratio of 2.5:1. Red target cell counts were tracked over time by live cell imaging and counts were normalized to the number of red target cells at baseline to determine the fold-change in target cells over time.
(§2) Anti-CD19 CAR-expressing T cell compositions were generated as described in Example 1 and were cultured with a CD19-expressing lymphoma target cell lines, either SUDHL6, WSU-DLCL2, or Granta-519 at an E:T ratio of 2.5:1. The co-cultures were carried out in the presence of 20 nM or 200 nM of the exemplary BCL2 inhibitor, venetoclax. As controls, target tumor cell lines were incubated only in the presence of the inhibitor or the anti-CD19 CAR T cells. Target cells were labeled with NucLight Red (NLR) to permit tracking of target cells by microscopy and target cell killing was monitored by the loss of fluorescent signal over time, substantially as described in Example 1.

Another data set deals with WSU-DLCL2. The data set is described as above. The protocol:
as §1, §2

The subject of another data set is Granta-519. The data set is described as above. The protocol: as §2
In a further experiment, anti-CD19 CAR-expressing T cell compositions, generated as described above, were cultured with the Granta-519 CD19-expressing lymphoma target cell line. Granta-519 cells were engineered with a lentiviral reagent to express NucLight Red (NLR) to permit tracking of target cells by microscopy. […] The anti-CD19 CAR T cells were provided in the co-cultures at the suboptimal dose, and the co-cultures were carried out in the presence of 0, 0.01, 0.1, or 1 μM of the exemplary BCL2 inhibitor venetoclax. For comparison, target tumor cell lines were incubated only in the presence of 0, 0.01, 0.1, or 1 μM of the inhibitor. Red target cell counts were enumerated by live cell imaging and tracked over time.

The next data set deals with RL cells. Description: RL target cell co-culture with CAR T cells and venetoclax (NLR microscopy). The note with it: with CAR T cells E:T 1:1, 0.1 venetoclax. The protocol: Anti-CD19 CAR-expressing T cell compositions, generated as described in Example 1, were cultured with the CD19-expressing lymphoma target cell line RL. Target cells were engineered with a lentiviral reagent to express NucLight Red (NLR) to permit tracking of the cells by microscopy. […] The anti-CD19 CART cells were co-cultured with target RL cells at an E:T ratio of 1:1, and the co-cultures were carried out in the presence of 0.1 μM of the exemplary BCL2 inhibitor venetoclax. For comparison, target cells were incubated only in the presence of the CAR T cells or 0.1 μM of the inhibitor.

The test system of the next data set is RL spheroids. The data set is described as follows: RL spheroid 3D tumor model, co-culture for 9 days. The protocol: The resistance of the RL cell line to CD19-directed CAR T cells was further assessed in a 3D tumor model. An anti-CD19 CAR-expressing T cell composition was generated from a human adult donor, substantially as described in Example 1. RL tumor cells engineered to express NLR were allowed to form spheroids for 72 hours, then co-cultured for 9 days with the anti-CD19 CAR T cells at an E:T ratio of 1:1. A subtherapeutic concentration of the exemplary BCL2 inhibitor venetoclax (0.1 μM) was added at the beginning of co-culture, and tumor volume was measured over time (FIG. 5B).
In a related experiment, spheroids were generated from CD19-expressing RL cells as described, and co-cultured for 9 days with anti-CD19 CAR T cells and increasing concentrations of venetoclax (0.01 μM, 0.1 μM, or 1.0 μM), or with only corresponding concentrations of venetoclax.

For data set [2], the system named is anti-CD19 CAR T cells. The data set is described as follows: Caspase 3 expression and expansion of CAR T cells incubated with anti-ID beads and venetoclax. The note with it: 0.01, 0.1, 1 or 10 μM, 48 hours post-stimulation. The protocol:
Anti-CD19 CAR-expressing T cell compositions from healthy donors were incubated with anti-ID antibody-coated beads at 37° C. in the presence of increasing concentrations of venetoclax (0.01 μM, 0.1 μM, 1 μM, or 10 μM) for 48 hours. As a control, CART cells were incubated under the same conditions, but without venetoclax. Caspase 3 expression, viability, and expansion kinetics of the CAR T cells were subsequently assessed.

Data set [3] relates to anti-CD19 CAR T cells. Description: Effect of serum concentration on venetoclax IC50 against CAR T cells. To be noted: 5%, 10% or 20% serum. The protocol: Thus, to determine whether serum concentration may modulate the effects of venetoclax on CAR T cells, anti-CD19 CAR T cells were cultured in the presence of 5%, 10%, or 20% serum and treated with increasing concentrations of venetoclax.

[4] abbreviates: co-culture with anti-CD19 CAR T cells E:T 2.5:1, 20 or 200 nM venetoclax.
The mark [5] stands for this setting: venetoclax alone, 20 nM or 200 nM.

Each structure is given as a SMILES string.

As for `CC1(C)CCC(CN2CCN(c3ccc(C(=O)NS(=O)(=O)c4ccc(NCC5CCOCC5)c([N+](=O)[O-])c4)c(Oc4cnc5[nH]ccc5c4)c3)CC2)=C(c2ccc(Cl)cc2)C1` [venetoclax], the “deleterious effects on CAR T cells” value with CD3+CAR+ T cells (administered when activation-induced cell death of CAR T cells has peaked (e.g. 2-7 days after CAR T cells), Example 9) is listed as “deleterious effects on CAR T cells not observed”. In addition, the “deleterious effects on the CAR T cells” value with CD3+CAR+ T cells (therapeutic dose administered 48 or 72 hours after initiation of co-culture) is listed as “without deleterious effects on the CAR T cells being observed”. For the same compound, the “CAR-T cell numbers and activity” value with CD3+CAR+ T cells (therapeutic dose given concurrently or at 24 hours after initiation of co-culture) is “reduced CAR-T cell numbers and activity”. Besides, the “T cell-mediated killing of cancer cells by a T cell therapy (CAR T cells)” value in data set [1] is listed as “improves T cell-mediated killing of cancer cells”. In addition, the tumor cell killing result is given as “killing of the sensitive tumor cell line SUDHL6 was achieved” in the data set with SUDHL6, “did not substantially impact tumor cell killing” in the data set on WSU-DLCL2 (setting [5]) and “did not substantially impact tumor cell killing” in the data set with Granta-519 (setting [5]). For the same compound, the “CD19-directed CAR T cell killing” value with WSU-DLCL2 (setting [4]) and in the data set on Granta-519 (setting [4]) was “enhanced” each time. In addition, the target cell number result is “did not substantially impact target cell number” with Granta-519 (venetoclax alone, 0.01 μM); “modest effect on target cell number” with Granta-519 (venetoclax alone, 0.1 μM and 1.0 μM); “demonstrated a decrease in the number of target cells” in the data set on Granta-519 (with anti-CD19 CAR T cells E:T 1:1, 0.01 μM venetoclax, compared to 0.01 μM inhibitor only). In addition, the “target cell number / CAR T cell killing” value in the data set with Granta-519 (with anti-CD19 CAR T cells E:T 1:1, 0.1 μM and 1.0 μM venetoclax) is “even greater CD19-directed CAR T cell killing”. In the data set on RL cells, the target cell killing result is recorded as “sensitized to the CD19-directed CAR T cell killing”. Further, in the data set with RL spheroids (combination of venetoclax and anti-CD19 CAR T cells (data not shown)), the “apoptosis of tumor cells” value is recorded as “induce apoptosis of tumor cells”. Further, the tumor size result in the data set on RL spheroids (day 9, venetoclax 0.01, 0.1 or 1.0 μM) is reported as “larger concentrations of venetoclax resulted in larger decreases in tumor size”. Moreover, the “size of RL spheroids” value with RL spheroids (day 9, with anti-CD19 CAR T cells, venetoclax 0.01, 0.1 or 1.0 μM, compared to venetoclax only) was “decreased substantially more”. In the data set on RL spheroids (with anti-CD19 CAR T cells E:T 1:1, 0.1 μM venetoclax, 9 days), the tumor volume result is “resulted in decreased tumor volume”. In addition, the “percentage of CAR+ T cells expressing caspase 3” value in the data set with anti-CD19 CAR T cells [2] is recorded as “larger percentages of CAR+ T cells expressing caspase 3”. Further, the “IC50 against anti-CD19 CAR T cells” value in the data set on anti-CD19 CAR T cells [3] was “increase with increasing concentrations of serum”.
